In brackets after ≈: the same amount, converted by molar mass. Where a SMILES comes first, the peptide text is derived from it.
Columns and labels:
[1] = tested on: S. aureus ATCC 25923; assay type: cell-based, Staphylococcus aureus; conditions: ATCC 25923, 18 h
Summary of the method: (§1)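 MICs came from CLSI broth microdilution, 1–512 μg/mL, with S. aureus at 0.5 × 10^5 CFU/mL in MHB for 18 h and C. albicans at 2 × 10^3 CFU/mL in RPMI-1640 for 24 h, both at 37 °C. For MBEC, 24 h biofilms were treated for 24 h; for MBIC, compound was added with the inoculum for 24 h. Resazurin was read after 1 h, with endpoint ≤10% reduction versus controls.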

[2] = tested on: S. aureus ATCC 25923 biofilm; assay type: cell-based, Staphylococcus aureus; conditions: ATCC 25923, 24 h
Summary of the method: as §1

[3] = tested on: S. aureus ATCC 25923 biofilm formation; assay type: cell-based, Staphylococcus aureus; conditions: ATCC 25923, 24 h
Summary of the method: as §1

[4] = tested on: P. aeruginosa ATCC 9027; assay type: cell-based, Pseudomonas aeruginosa; conditions: ATCC 9027, 18 h
Summary of the method: (§2)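 Broth microdilution per CLSI, 1–512 μg/mL; bacteria 0.5 × 10^5 CFU/mL in MHB, 37 °C 18 h; C. albicans 2 × 10^3 CFU/mL in RPMI-1640, 24 h; MIC = lowest concentration visibly inhibiting growth. MBEC: 24-h biofilms, PBS-rinsed, compound 24 h at 37 °C, resazurin read after 1 h. MBIC: compound with inoculum 24 h, then resazurin 1 h; cut-off ≤10% reduction versus controls.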

[5] = tested on: P. aeruginosa ATCC 9027 biofilm; assay type: cell-based, Pseudomonas aeruginosa; conditions: ATCC 9027, 24 h
Summary of the method: as §2

[6] = tested on: P. aeruginosa ATCC 9027 biofilm formation; assay type: cell-based, Pseudomonas aeruginosa; conditions: ATCC 9027, 24 h
Summary of the method: as §2

[7] = tested on: E. coli ATCC 25922 biofilm formation; assay type: cell-based, Escherichia coli; conditions: ATCC 25922, 24 h
Summary of the method: as §2

[8] = tested on: E. coli ATCC 25922; assay type: cell-based, Escherichia coli; conditions: ATCC 25922, 18 h
Summary of the method: as §2

[9] = tested on: E. coli ATCC 25922 biofilm; assay type: cell-based, Escherichia coli; conditions: ATCC 25922, 24 h
Summary of the method: as §2

[10] = tested on: E. faecalis PCM 2673 biofilm; assay type: cell-based, Enterococcus faecalis; conditions: 24 h
Summary of the method: as §2

[11] = tested on: E. faecalis PCM 2673 biofilm formation; assay type: cell-based, Enterococcus faecalis; conditions: 24 h
Summary of the method: as §2

[12] = tested on: E. faecalis PCM 2673; assay type: cell-based, Enterococcus faecalis; conditions: PCM 2673, 18 h
Summary of the method: as §2

[13] = tested on: human red blood cells (RBCs); assay: Hemolysis assay; assay type: cell-based; conditions: red cells of human, 1 h
Summary of the method: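 Fresh EDTA-anticoagulated human erythrocytes were PBS-washed and used at 4% (v/v) with peptide at 1–256 μg/mL in PBS for 1 h at 37 °C. Hemoglobin release in the supernatant was read at 540 nm. PBS set 0% and 1% Triton X-100 set 100% hemolysis; run in triplicate.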

[14] = tested on: C. albicans ATCC 10231 biofilm; assay type: cell-based, Candida albicans; conditions: ATCC 10231, 24 h
Summary of the method: as §1

[15] = tested on: C. albicans ATCC 10231; assay type: cell-based, Candida albicans; conditions: ATCC 10231, 24 h
Summary of the method: as §1

[16] = tested on: C. albicans ATCC 10231 biofilm formation; assay type: cell-based, Candida albicans; conditions: ATCC 10231, 24 h
Summary of the method: as §1

[17] = in vitro; assay type: in vitro ADME; conditions: bovine, serum
Summary of the method: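 Peptides incubated in 25% (v/v) fetal bovine serum in PBS at 37 °C, quenched with ice-cold acetonitrile at t0 and 6 h. Intact peptide quantified by RP-HPLC-MS in selected ion recording mode; % remaining = peak area at 6 h / peak area at t0.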

Structure (SMILES)	MIC, S. aureus ATCC 25923 [1] [µg/mL]	MBEC, S. aureus ATCC 25923 [2] [µg/mL]	MBIC, S. aureus ATCC 25923 [3] [µg/mL]	MIC, P. aeruginosa ATCC 9027 [4] [µg/mL]	MBEC, P. aeruginosa ATCC 9027 [5] [µg/mL]	MBIC, P. aeruginosa ATCC 9027 [6] [µg/mL]	MBIC, E. coli ATCC 25922 [7] [µg/mL]	MIC, E. coli ATCC 25922 [8] [µg/mL]	MBEC, E. coli ATCC 25922 [9] [µg/mL]	MBEC, E. faecalis PCM 2673 [10] [µg/mL]	MBIC, E. faecalis PCM 2673 [11] [µg/mL]	MIC, E. faecalis PCM 2673 [12] [µg/mL]	Percentage of hemolysis at 1 μg/mL [13] [%]	Percentage of hemolysis at 2 μg/mL [13] [%]	Percentage of hemolysis at 4 μg/mL [13] [%]	Percentage of hemolysis at 8 μg/mL [13] [%]	Percentage of hemolysis at 16 μg/mL [13] [%]	Percentage of hemolysis at 32 μg/mL [13] [%]	Percentage of hemolysis at 64 μg/mL [13] [%]	Percentage of hemolysis at 128 μg/mL [13] [%]	other results
CC[C@H](C)[C@H](NC(=O)[C@H](CCCCN)NC(=O)[C@H](CCCCN)NC(=O)[C@H](C)NC(=O)[C@@H](NC(=O)[C@H](CC(=O)O)NC(=O)[C@H](Cc1ccccc1)NC(=O)[C@H](CC(C)C)NC(=O)CN)[C@@H](C)CC)C(=O)N[C@@H](C)C(=O)N[C@@H](CCC(=O)O)C(=O)N[C@@H](CO)C(=O)N[C@@H](Cc1ccccc1)C(N)=O [Peptide I6A] (H-GLFDIAKKIAESF-NH2)	> 512	> 512	> 512	> 512	> 512	> 512	512	512 (≈ 356 µM)	> 512	> 512	> 512	256 (≈ 178 µM)	0.4	0.6	0.5	0.3	0.1	0.0	0.1	0.1	Percentage of hemolysis at 256 μg/mL [13]: 0.1%; MBEC, C. albicans ATCC 10231 [14]: > 512 µg/mL; MIC, C. albicans ATCC 10231 [15]: 256 µg/mL (≈ 178 µM); MBIC, C. albicans ATCC 10231 [16]: 4 µg/mL; remaining at 6 h, 0.125 mg/mL [17]: 29%
CC[C@H](C)[C@H](NC(=O)[C@H](CC(=O)O)NC(=O)[C@H](Cc1ccccc1)NC(=O)[C@H](CC(C)C)NC(=O)CN)C(=O)N[C@H](C(=O)N[C@@H](CCCCN)C(=O)N[C@@H](CCCCN)C(=O)N[C@@H](C)C(=O)N[C@@H](C)C(=O)N[C@@H](CCC(=O)O)C(=O)N[C@@H](CO)C(=O)N[C@@H](Cc1ccccc1)C(N)=O)[C@@H](C)CC [Peptide I9A] (H-GLFDIIKKAAESF-NH2)	> 512	> 512	> 512	> 512	> 512	> 512	>512	512 (≈ 356 µM)	> 512	> 512	> 512	128 (≈ 89 µM)	0.6	0.6	0.3	0.1	0.0	0.0	0.0	0.0	Percentage of hemolysis at 256 μg/mL [13]: 0.0%; MBEC, C. albicans ATCC 10231 [14]: > 512 µg/mL; MIC, C. albicans ATCC 10231 [15]: 512 µg/mL (≈ 356 µM); MBIC, C. albicans ATCC 10231 [16]: 16 µg/mL; remaining at 6 h, 0.125 mg/mL [17]: 6%
CC[C@H](C)[C@H](NC(=O)[C@H](CCCCN)NC(=O)[C@H](CCCCN)NC(=O)[C@@H](NC(=O)[C@@H](NC(=O)[C@H](CC(=O)O)NC(=O)[C@H](Cc1ccccc1)NC(=O)[C@H](C)NC(=O)CN)[C@@H](C)CC)[C@@H](C)CC)C(=O)N[C@@H](C)C(=O)N[C@@H](CCC(=O)O)C(=O)N[C@@H](CO)C(=O)N[C@@H](Cc1ccccc1)C(N)=O [Peptide L2A] (H-GAFDIIKKIAESF-NH2)	> 512	> 512	> 512	512 (≈ 356 µM)	> 512	> 512	512	256 (≈ 178 µM)	512	> 512	> 512	512 (≈ 356 µM)	0.3	0.6	0.4	0.2	0.0	0.0	0.0	0.0	Percentage of hemolysis at 256 μg/mL [13]: 0.0%; MBEC, C. albicans ATCC 10231 [14]: > 512 µg/mL; MIC, C. albicans ATCC 10231 [15]: 256 µg/mL (≈ 178 µM); MBIC, C. albicans ATCC 10231 [16]: 8 µg/mL; remaining at 6 h, 0.125 mg/mL [17]: 6%
CC[C@H](C)[C@H](NC(=O)[C@H](CCCCN)NC(=O)[C@H](CCCCN)NC(=O)[C@@H](NC(=O)[C@@H](NC(=O)[C@H](CC(=O)O)NC(=O)[C@H](Cc1ccccc1)NC(=O)[C@H](CC(C)C)NC(=O)CN)[C@@H](C)CC)[C@@H](C)CC)C(=O)N[C@@H](C)C(=O)N[C@@H](CCC(=O)O)C(=O)N[C@@H](CO)C(=O)N[C@@H](Cc1ccccc1)C(N)=O [aurein 1.2] (H-GLFDIIKKIAESF-NH2)	128 (≈ 86.5 µM)	128	128	256 (≈ 173 µM)	512	128	128	64 (≈ 43.2 µM)	64	> 512	128	64 (≈ 43.2 µM)	0.0	0.1	0.0	0.0	0.4	0.5	4.5	19.2	Percentage of hemolysis at 256 μg/mL [13]: 58.8%; MBEC, C. albicans ATCC 10231 [14]: 256 µg/mL; MIC, C. albicans ATCC 10231 [15]: 32 µg/mL (≈ 21.6 µM); MBIC, C. albicans ATCC 10231 [16]: 2 µg/mL; remaining at 6 h, 0.125 mg/mL [17]: 65%
